The values that follow come from patent US9018248B2, “Fatty acid derivatives of catechins and methods of their use” (Genesis Group Inc., priority 2010, dated 2015).

Assay [1] concerns LPS-induced NO production. The assay is described as follows: LPS-induced NO production in RAW 264.7 macrophage (Griess reaction). The format is cell-based, murine. To be noted: RAW 264.7 macrophage, nitrite by Griess reaction, read-out: IC50, inhibition against LPS-induced NO production. As for the experimental part:
RAW 264.7 cells were cultured in Rosewell Park Memorial Institute (RPMI) 1640 media (without phenol red) supplemented with 10% endotoxin-free, heat-inactivated fetal calf serum, 100 units/ml penicillin, and 100 μg/ml streptomycin. When the cells reached a density of 2-3×10^6 cells/ml, they were activated by incubation in a medium containing E. coli lipopolysaccharide (LPS) (100 ng/ml). Various concentrations of compounds of the disclosure in dimethyl sulphoxide (DMSO) were added together with LPS. Cells were treated with 0.05% DMSO as the vehicle control. The stimulated murine macrophage cell line RAW 264.7 cells were washed with PBS and lysed in an ice-cold RIPA buffer (Tris-HCl, pH 7.2, 25 mM; 0.1% SDS; 1% Triton X-100; 1% sodium deoxycholate; 0.15 M NaCl; 1 mM EDTA) containing 1 mM phenylmethyl sulphonyl fluoride (PMSF), 10 μg/mL aprotinin, 1 mM sodium ortho-vanadate, and 5 μg/mL leupeptin. Protein concentrations were determined using the BCA method (Pierce, Rockford, Ill.). The samples (50 μg of protein) were mixed with 5-fold of sample buffer containing 0.3 M Tris-HCl (pH 6.8), 25% 2-mercaptoethanol, 12% sodium dodecyl sulphate (SDS), 25 mM EDTA, 20% glycerol, and 0.1% bromophenol blue. The mixtures were boiled at 100° C. for 5 min, prerun on a stacking gel, and then resolved by 12% SDS-polyacrylamide minigels at a constant current of 20 mA. For western blot, proteins on the gel were electro-transferred onto a […] immobile polyvinylidene fluoride (PVDF) membrane with a transfer buffer composed of 25 mM Tris-HCl (pH 8.9), 192 mM glycine, and 20% methanol, as described by Pan et al. (2000). Membrane blocking was then carried out at room temperature for 1 h in blocking solution (20 mM Tris-HCl pH 7.4, 125 mM NaCl, 0.2% Tween 20, 1% bovine serum albumin, and 0.1% sodium azide). The membrane was incubated with the primary antibody of iNOS and COX-2 at 4° C. overnight. The membranes were subsequently probed with selected IgG antibody conjugated to horseradish peroxidase (Transduction Laboratories, Lexington, Ky.) and visualized using enhanced chemiluminescence (ECL, Amersham). The densities of the bands were quantitated using a densitometer (AlphaImager 2200 System). All the membranes were stripped and reprobed for β-actin (Sigma Chemical Co., St. Louis, Mo.) as loading control. […] The inhibition of iNOS induction by compounds of the disclosure may be due to down regulation of iNOS gene expression. […] (7b) Inhibition Against LPS-Induced NO Production in RAW 264.7 Macrophage The LPS-induced NO production by the macrophages was determined as nitrite concentration in the culture medium according to the Griess reaction. […] The absorbance of the mixture at 550 nm was measured with an ELISA plate reader (Dynatech MR-7000; Dynatech Laboratories, Chantilly, Va., USA). […]
(In general: Griess reagent forms a coloured azo dye with nitrite.)

Another assay deals with supercoiled pBR322 DNA. Description: Hydroxyl radical-induced DNA scission. To be noted: 1 μM test compounds, H2O2/Fe2SO4, 37° C., 1 hour, FIG. 2. As for the experimental part:
For hydroxyl radical-induced DNA oxidation, 2 μL of test compounds dissolved in ethanol were added into an Eppendorf tube and the solvent was evaporated under a nitrogen stream. To the tube 2 μL of distilled water were added, followed by thorough vortexing for 1 min. The following reagents were then added to the tube in the order as stated: 2 μL of PBS (pH7.4), 2 μL of supercoiled pBR322 DNA, 2 μL of H2O2 and 2 μL of Fe2SO4. The mixture (10 μL) containing 1 μM test compounds, 0.1M PBS, 10 μg/ml DNA, 0.2 mM H2O2 and 0.1 mM Fe2SO4 (final concentration/assay) was incubated at 37° C. for 1 hour.
After incubation, 1 μL of loading dye (0.25% bromophenol blue/0.25% xylene cyanol/50% glycerol) was added, and the whole mixture was loaded onto an agarose gel. […] The images were analyzed using AlphaEase stand-alone software (Alpha Innotech Co., San Leandro, Calif.) and the intensity or density of the bands (obtained from densitometer) was used as the indicator of concentration of the native (supercoiled) and nicked DNA fractions. Antioxidant activity was calculated as DNA retention according to the following equation: % retention=100×(native DNAsample/native DNAblank) where, DNAsample and DNAblank are normalized concentrations of native supercoiled DNA in total DNA for sample groups and blank, respectively. […]

A further assay concerns iNOS. Description: iNOS protein expression in LPS-stimulated RAW 264.7 macrophages (western blot). In kind it is cell-based, murine. To be noted: LPS 100 ng/ml, RAW 264.7, western blot; 20 and 40 μM for 1a-1c. As for the experimental part: RAW 264.7 cells were cultured in Rosewell Park Memorial Institute (RPMI) 1640 media (without phenol red) supplemented with 10% endotoxin-free, heat-inactivated fetal calf serum, 100 units/ml penicillin, and 100 μg/ml streptomycin. When the cells reached a density of 2-3×10^6 cells/ml, they were activated by incubation in a medium containing E. coli lipopolysaccharide (LPS) (100 ng/ml). Various concentrations of compounds of the disclosure in dimethyl sulphoxide (DMSO) were added together with LPS. Cells were treated with 0.05% DMSO as the vehicle control. The stimulated murine macrophage cell line RAW 264.7 cells were washed with PBS and lysed in an ice-cold RIPA buffer (Tris-HCl, pH 7.2, 25 mM; 0.1% SDS; 1% Triton X-100; 1% sodium deoxycholate; 0.15 M NaCl; 1 mM EDTA) containing 1 mM phenylmethyl sulphonyl fluoride (PMSF), 10 μg/mL aprotinin, 1 mM sodium ortho-vanadate, and 5 μg/mL leupeptin. Protein concentrations were determined using the BCA method (Pierce, Rockford, Ill.). The samples (50 μg of protein) were mixed with 5-fold of sample buffer containing 0.3 M Tris-HCl (pH 6.8), 25% 2-mercaptoethanol, 12% sodium dodecyl sulphate (SDS), 25 mM EDTA, 20% glycerol, and 0.1% bromophenol blue. The mixtures were boiled at 100° C. for 5 min, prerun on a stacking gel, and then resolved by 12% SDS-polyacrylamide minigels at a constant current of 20 mA. For western blot, proteins on the gel were electro-transferred onto a […] immobile polyvinylidene fluoride (PVDF) membrane with a transfer buffer composed of 25 mM Tris-HCl (pH 8.9), 192 mM glycine, and 20% methanol, as described by Pan et al. (2000). […] The densities of the bands were quantitated using a densitometer (AlphaImager 2200 System). […] (7b) Inhibition Against LPS-Induced NO Production in RAW 264.7 Macrophage The LPS-induced NO production by the macrophages was determined as nitrite concentration in the culture medium according to the Griess reaction. […] The absorbance of the mixture at 550 nm was measured with an ELISA plate reader (Dynatech MR-7000; Dynatech Laboratories, Chantilly, Va., USA). […]
In general terms: In western blotting, separated proteins are transferred to a membrane and probed.

Where two headings read alike, the source gives them in different places.

Usually IC50 stands for the concentration that inhibits the measured activity by half. Take `CCCCCCCCCCCCCCCCCC(=O)Oc1cc(C(=O)OC2Cc3c(O)cc(O)cc3OC2c2cc(OC(=O)CCCCCCCCCCCCCCCCC)c(O)c(OC(=O)CCCCCCCCCCCCCCCCC)c2)cc(OC(=O)CCCCCCCCCCCCCCCCC)c1O` (stereo not drawn) [Compound 1a, EGCG stearate]: the half-maximal inhibitory concentration (IC50) in assay [1] (Mus musculus, RAW264.7) turned out to be 40.7 µM.

Turning to `CCC=CCC=CCC=CCC=CCC=CCCCC(=O)Oc1cc(C(=O)OC2Cc3c(O)cc(O)cc3OC2c2cc(OC(=O)CCCC=CCC=CCC=CCC=CCC=CCC)c(O)c(OC(=O)CCCC=CCC=CCC=CCC=CCC=CCC)c2)cc(OC(=O)CCCC=CCC=CCC=CCC=CCC=CCC)c1O` (stereo not drawn) [Compound 1b], the “Antioxidant activity against hydroxyl radical-induced DNA scission” value in the assay with supercoiled pBR322 DNA is listed as “the most potent antioxidant among all”. Further, in the assay on iNOS, the “Inhibition of iNOS protein expression” value is reported as “strong dose-dependent relationship in suppressing the cytokine production”.

For the molecule `CCC=CCC=CCC=CCC=CCC=CCC=CCCC(=O)Oc1cc(C(=O)OC2Cc3c(O)cc(O)cc3OC2c2cc(OC(=O)CCC=CCC=CCC=CCC=CCC=CCC=CCC)c(O)c(OC(=O)CCC=CCC=CCC=CCC=CCC=CCC=CCC)c2)cc(OC(=O)CCC=CCC=CCC=CCC=CCC=CCC=CCC)c1O` (stereo not drawn) [Compound 1c], the “Inhibition of iNOS protein expression” value with iNOS was “the most potent in inhibiting the induction of iNOS expression”.

For the molecule `O=C(O[C@@H]1Cc2c(O)cc(O)cc2O[C@@H]1c1cc(O)c(O)c(O)c1)c1cc(O)c(O)c(O)c1` [EGCG, Epigallocatechin gallate, reference compound], the IC50 in assay [1] (Mus musculus, RAW264.7) worked out at 103 µM; in assay [1] it was 103 µM.
